Data taken from patent US11572344B2, “Cyanoaryl-aniline compounds for treatment of dermal disorders” (NFlection Therapeutics, Inc., priority 2018, dated 2023).

How the values were obtained:
MEK1 = MEK1 (Homo sapiens (Human), UniProt Q02750); test: MEK Inhibition Assay-2 (Z′-LYTE biochemical assay); conditions: Z′-LYTE assay of Example 39; read-out: IC50 against MEK1
Method: MEK1 inhibitory activity of compounds were tested using the following procedure (protocol available at thermofisher.com/content/dam/LifeTech/migration/files/drug-discovery/pdfs.par.60256.file.dat/20130430%20ssbk %20customer %20protocol %20and %20assa y %20conditions.pdf). The Z′-LYTE biochemical assay (ThermoFisher) employs a fluorescence-based, coupled-enzyme format and is based on the differential sensitivity of phosphorylated and non-phosphorylated peptides to proteolytic cleavage.
Test compounds in 100% DMSO were screened in 1% DMSO (final) in the well. For 10 point titrations, 3-fold serial dilutions are conducted from the starting concentration of 30 μM.
After the 1 hour incubation, 5 μL of a 1:1024 dilution of Development Reagent A (available from Invitrogen, catalog no. PV3295) was added.
ATP solutions were diluted to a 4× working concentration in Kinase Buffer (50 mM HEPES pH 7.5, 0.01% BRIJ-35, 10 mM MgCl2, 1 mM EGTA). ATP Km apparent was previously determined using a Z′-LYTE assay. The Development Reagent was diluted in Development Buffer (available from Invitrogen, catalog no. P3127).
Assay Protocol: 2.5 μL of 4× test compound or 100 nL of 100× Test Compound plus 2.4 μL Kinase Buffer, 5 μL of the 2× Peptide/Kinase Mixture, 2.5 μL of 4×ATP Solution were added to the plates and placed on a shake plate for 30-seconds. The kinase reaction was allowed to proceed for 60-minute at room temperature, before 5 μL of Development Reagent Solution was added, and the mixture agitated for 30-seconds on a shake plate. The mixture was incubated for 60-minute at room temperature. Fluorescence was measured using a plate reader and the data were analyzed.
This control yielded 100% cleaved peptide in the Development Reaction. The 100% Phosphorylation Control, which consisted of a synthetically phosphorylated peptide of the same sequence as the peptide substrate, was designed to allow for the calculation of percent phosphorylation. This control yielded a very low percentage of cleaved peptide in the Development Reaction. The 0% Phosphorylation and 100% Phosphorylation Controls allow for the calculation of the percent phosphorylation achieved in a specific reaction well.
The minimum emission ratio in a screen was established by the 0% Inhibition Control, which contained active kinase. This control was designed to produce a 10-50% phosphorylated peptide in the Kinase Reaction. Cascade assays may produce up to 70% phosphorylated peptide.
A known inhibitor control standard curve, 10 point titration, was run for each individual kinase on the same plate as the kinase to ensure the kinase was inhibited within an expected IC50 range previously determined.
The following controls are prepared for each concentration of Test Compound assayed. […] The expected value for a non-interfering compound should be 100%. Any value outside of 90% to 110% was flagged. […] The expected value for a non-fluorescence compound should be 0%. Any value>20% was flagged.
The data in Table A was calculated. XLfit from IDBS was used. The dose response curve was curve fit to model number 205 (sigmoidal dose-response model).
Table 3 lists the MEK1 inhibition assay results of selected compounds according to the above procedure.

HCT116 cells = test: HCT116 (Kras) GI50 cell-based assay (Cell Titer-Glo); conditions: Homo sapiens, HCT-116, 72 hours, read-out: Assay 3: HCT116 (Kras) GI50
Method: (§1) Alternatively, the following procedure can be used to measure cell-based activity. Test compounds were dissolved in DMSO in 10 mM stock. Cell Titer-Glo® 2.0 Luminescent cell viability assay reagent was purchased from Promega (Madison, Wis.). A375 and HCT116 cell lines were purchased from American Type Culture Collection (Manassas, Va.). For A375 cells, cell culture media was DMEM+10% FBS. For HCT116 cells, cell culture media was McCoy's 5A+10% FBS. All media were supplemented with 100 μg/mL of penicillin, and 100 μg/mL of streptomycin. Cultures were maintained at 37° C. in a humidified atmosphere of 5% CO2 and 95% air.
(§2) Test compounds were diluted in DMSO solution with 10-dose and 3-fold dilutions in a source plate starting at 10 mM. 25 nL of each test compound was delivered from the source plate to each well of the 384-well cell culture plates (T=Final) by Echo 550. 25 μL of culture medium containing 2000 of A375 or HCT116 cells was added to each of the wells in duplicates of the cell culture plates (T=0 and T=Final). 25 μL of Cell Titer Glo 2.0 reagent was added to each well of cell culture plate (T=0). The contents were mixed on an orbital shaker for 2 min and incubated at room temperature for 15 min to stabilize luminescent signal. Luminescence was recorded by Envision 2104 Multilabel Reader (PerkinElmer, Santa Clara, Calif.). The number of viable cells in culture was determined based on quantitation of the ATP present in each culture well. The cells in cell culture plate (T=Final) were incubated with the compounds at 37° C., 5% CO2 for 72 hours. 25 μL of Cell Titer Glo 2.0 reagent was added to each well. The contents were mixed on an orbital shaker for 2 min and incubated at room temperature for 15 min to stabilize luminescent signal. Luminescence was recorded by Envision 2104 Multilabel Reader (PerkinElmer, Santa Clara, Calif.). The number of viable cells in culture was determined based on quantitation of the ATP present in each culture well. The GI50 curves were plotted using the GraphPad Prism 4 program based on a sigmoidal dose-response equation Y=Bottom+(Top-Bottom)/(1+10^((Log EC50−X)*HillSlope)). All parameters in the equation were calculated by GraphPad Prism 4 program. […] Accordingly, GI50 is the value of 10^X, where X was calculated by the Curve Fitting Equation when Y=50 using Excel.
Assay 3 is the HCT116 (Kras) GI50 (nM) assay as described in Example 41.

[1] = Liver S9 half-life stability assay; format: in vitro ADME; conditions: human, liver S9 fraction, pH 7.4; 1 μM test compound, 2 mg/mL liver protein, 1 mM NADPH; read-out: Assay 4: liver S9 half-life
Method: Compounds can be assessed for metabolic stability in human skin by assessing their rate of disappearance from human S9 skin fraction. Similarly, compounds can be assessed for metabolic stability in human liver by assessing their rate of disappearance from human S9 liver fraction. The protocol below is used to assess the difference between skin and hepatic metabolism.
The assay was carried out in 96-well microtiter plates at 37° C. Reaction mixtures (25 μL) contained a final concentration of 1 μM test compound, 2 mg/mL liver or skin protein, and 1 mM NADPH in buffer (100 mM potassium phosphate, pH 7.4 buffer with 1 mM EDTA, 3 mM MgCl2). At each of the time points (0, 15, 30, and 60 minutes), 150 μL of quench solution (100% acetonitrile with 0.1% formic acid) with internal standard was transferred to each well. Besides the zero minute controls, mixtures containing the same components except the NADPH were also prepared as the negative control. Verapamil or testosterone was included as a positive control to verify assay performance. Plates were sealed and centrifuged at 4° C. for 15 minutes at 4000 rpm. The supernatant was transferred to fresh plates for LC/MS/MS analysis.
All samples were analyzed on LC/MS/MS using an AB Sciex API 4000 instrument, coupled to a Shimadzu LC-20AD LC Pump system. Analytical samples were separated using a Waters Atlantis T3 dC18 reverse phase HPLC column (20 mm×2.1 mm) at a flow rate of 0.5 mL/min. The mobile phase consisted of 0.1% formic acid in water (solvent A) and 0.1% formic acid in 100% acetonitrile (solvent B).
The extent of metabolism was calculated as the disappearance of the test compound, compared to the 0-min control reaction incubations. Initial rates were calculated for the compound concentration and used to determine t1/2 values and subsequently, the intrinsic clearance, CLint=(0.693) (1/t1/2 (min)) (mL incubation/mg of S9 protein).
Assay 4 is the liver S9 half-life stability assay as described in Example 42. A4 indicates a half life of greater than 50 min and less than or equal to 200 min and B4 indicates a half life of less than or equal to 50 minutes.

A375 cells = test: A375 (BRAF) GI50 cell-based assay (Cell Titer-Glo); conditions: Homo sapiens, A-375, 72 hours, read-out: Assay 2: A375 (BRAF) GI50
Method: as §1, §2
Assay 2 is the A375 (BRAF) GI50 (nM) cell-based assay as described in Example 41.

[2] = systemic MEK inhibitor; cited from earlier work

MEK1, sequence (Q02750 whole entry): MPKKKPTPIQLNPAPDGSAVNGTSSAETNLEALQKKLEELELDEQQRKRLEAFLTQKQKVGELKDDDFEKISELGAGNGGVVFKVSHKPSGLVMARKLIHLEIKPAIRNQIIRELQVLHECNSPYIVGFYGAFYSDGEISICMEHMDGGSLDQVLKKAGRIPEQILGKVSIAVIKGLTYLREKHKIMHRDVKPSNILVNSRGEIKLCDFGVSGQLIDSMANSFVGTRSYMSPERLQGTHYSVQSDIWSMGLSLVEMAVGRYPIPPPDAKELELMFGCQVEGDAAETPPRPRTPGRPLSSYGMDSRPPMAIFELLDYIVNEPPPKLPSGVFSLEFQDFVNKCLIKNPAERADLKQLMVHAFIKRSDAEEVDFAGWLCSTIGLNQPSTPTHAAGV

| SMILES | IC50 (MEK1) [µM] | half-life at 1 μM [1] [min] | other results |
| --- | --- | --- | --- |
| COC(=O)CCONC(=O)c1ccc(C#N)cc1Nc1ccc(I)cc1F [Compound 1.022, Methyl 3-((4-cyano-2-((2-fluoro-4-iodophenyl)amino)benzamido)oxy) propanoate] | > 1.5 | – | – |
| CCONC(=O)c1ccc(C#N)cc1Nc1ccc(I)cc1F [Compound 1.008] | – | ≤ 50 | GI50 (HCT116 cells): 0.75 to 2 µM; GI50 (A375 cells): 0.5 to 1.5 µM |
| CONC(=O)c1ccc(C#N)cc1Nc1ccc(I)cc1F [Compound 1.007] | – | ≤ 50 | GI50 (HCT116 cells): 0.75 to 2 µM; GI50 (A375 cells): 0.5 to 1.5 µM |
| CCCONC(=O)c1ccc(C#N)cc1Nc1ccc(I)cc1F [Compound 1.009] | – | ≤ 50 | – |
| N#Cc1ccc(C(=O)NC2CC2)c(Nc2ccc(I)cc2F)c1 [Compound 1.005] | > 1.5 | – | – |
| O=C(NOC[C@H](O)CO)c1ccc(F)c(F)c1Nc1ccc(I)cc1F [PD0325901] | – | – | side effects in clinical trials [2]: neurological side effects associated with ataxia, confusion, and syncope |
| N#Cc1ccc(C(=O)NO)c(Nc2ccc(I)cc2F)c1 [Compound 1.017, 4-Cyano-2-((2-fluoro-4-iodophenyl)amino)-N-hydroxybenzamide] | ≤ 0.15 | – | – |
